This is an account of results in PubChem BioAssay AID1996.

Structures are written as SMILES. ≈ marks a conversion by molar mass, not a printed value.

The conditions of this series: buffer; pH 7.4; 200.0 µM.
The kinetic solubility is the concentration staying in solution when a stock, usually in DMSO, is diluted into the medium. Regarding `CCNC(=O)NC(=O)C(C)OC(=O)c1cccn1C` (stereo unspecified), the solubility (kinetic) was over 40.1 µg/mL.

Regarding `COC(=O)C1CN(C(=O)COc2ccccc2C)c2ccccc2O1` (stereo unspecified), the solubility (kinetic) is 48.8 µg/mL (≈ 143 µM).

The molecule `C[C@H](NC(=O)C(c1ccccc1)c1ccccc1)c1ccccc1` registered a kinetic solubility of 8.5 µg/mL (≈ 26.9 µM).

In the case of `Cc1cc(C)nc(/N=C(\NC(=O)C(C)(C)C)Nc2ccccc2)n1`, the solubility (kinetic) turned out to be 1.8 µg/mL (≈ 5.53 µM).

Molecule `COc1ccc(S(=O)(=O)NCc2ccccn2)cc1Br` gave a kinetic solubility of over 53.6 µg/mL.

As to `Cc1cc(C(=O)NCc2ccccc2Cl)c2ccccc2n1`, the kinetic solubility came out at 4.1 µg/mL (≈ 13.2 µM).

In the case of `Cc1ccc(NC(=O)C2CC2c2ccccc2)cc1` (stereo unspecified), the kinetic solubility was 2.4 µg/mL (≈ 9.55 µM).

`Cc1c(Cl)cccc1Nc1ccccc1C(=O)O` had a kinetic solubility of over 39.3 µg/mL.

On to `CC1CC(C)CN(CC(=O)c2c[nH]c3ccccc23)C1` (stereo unspecified), for which the solubility (kinetic) turned out to be 37.8 µg/mL (≈ 140 µM).

In the case of `COCCN(CC(=O)Nc1cccc(C)c1C)C(=O)Cc1ccsc1`, the kinetic solubility is over 54.1 µg/mL.

In the case of `CC(C)[C@H](NC(=O)c1ccccc1Cl)C(=O)OCC(=O)N1CCCCC1`, the kinetic solubility is over 57.1 µg/mL.

For `Cc1ccc(OCCn2c(C)nc3ccccc32)cc1`, the solubility (kinetic) turned out to be 9.6 µg/mL (≈ 36 µM).

The molecule `CC(=O)NC(CC(=O)Nc1nc(C)cs1)c1ccccc1` (stereo unspecified) came in with a solubility (kinetic) of over 45.5 µg/mL.

Molecule `O=[N+]([O-])c1cc(Cl)ccc1Nc1ccccc1` came in with a solubility (kinetic) of under 0.3 µg/mL.

With `O=C(OCC(=O)N1CCc2ccccc21)c1ccncc1`, the kinetic solubility amounted to 33.1 µg/mL (≈ 117 µM).

Consider `Cc1ccc(S(=O)(=O)CCc2nc3ccccc3[nH]2)cc1`, for which the solubility (kinetic) was over 45.1 µg/mL.

On to `CCN(C(=O)Cn1c(Cl)nc2c1c(=O)n(C)c(=O)n2C)C1CCCCC1`, for which the kinetic solubility was over 57.3 µg/mL.

The molecule `CN(C)C(CNC(=O)c1ccc(Br)cc1)c1ccco1` (stereo unspecified) yielded a solubility (kinetic) of 30.4 µg/mL (≈ 90.1 µM).

On to `CC(OC(=O)CCc1nc2ccccc2c(=O)[nH]1)C(=O)Nc1cccc(C(F)(F)F)c1` (stereo unspecified), for which the kinetic solubility was over 65 µg/mL.

In turn, `CC(C)(C)NC(=O)COC(=O)c1ccc(Cl)nc1` displayed a solubility (kinetic) of 36.4 µg/mL (≈ 134 µM).

For `Fc1cccc2sc(N3CCCC3)nc12`, the kinetic solubility is 17.4 µg/mL (≈ 78.3 µM).

In the case of `O=C(CC1NCCN(Cc2ccccc2)C1=O)Nc1ccc(Cl)cc1` (stereo unspecified), the kinetic solubility is 46.8 µg/mL (≈ 131 µM).

Molecule `N#Cc1ccc(C(=O)NCC2CCCCC2)cc1` had a kinetic solubility of 19.9 µg/mL (≈ 82.1 µM).

`COc1ccc(CCNc2ccc(S(N)(=O)=O)cn2)cc1` showed a kinetic solubility of 42.8 µg/mL (≈ 139 µM).

Regarding `O=C(CCc1ccccc1)NCCc1ccc(F)cc1`, the solubility (kinetic) was 37.4 µg/mL (≈ 138 µM).

For the molecule `CCN(CC)P(=O)(c1ccccc1)c1c(C)nc2ccccn12` (stereo unspecified), the solubility (kinetic) is over 49.1 µg/mL.

In turn, `CC(NC(=O)COC(=O)/C=C/c1cccc(F)c1)c1ccccc1` (stereo unspecified) had a solubility (kinetic) of 6.1 µg/mL (≈ 18.6 µM).

Molecule `O=C(NC1CCSc2ccccc21)c1ccc(C(F)(F)F)cc1` (stereo unspecified) showed a solubility (kinetic) of under 0.7 µg/mL.

As for `O=C(O)/C=C\C(=O)NCc1cccnc1`, the kinetic solubility is over 30.9 µg/mL.

`O=[N+]([O-])c1ccccc1Nc1nc(-c2cccnc2)cs1`: the kinetic solubility was found to be 1.7 µg/mL (≈ 5.7 µM).

Molecule `CC1(C)C2CCC1(C)C(OC(=O)C[n+]1ccccc1N)C2.[Br-]` (stereo unspecified) had a solubility (kinetic) of over 55.4 µg/mL.

In turn, `CSc1ncc(Cl)c(C(=O)Nc2cccnc2)n1` had a kinetic solubility of over 42.1 µg/mL.

The molecule `NC(=O)NC(=O)C(Nc1ccc2c(c1)CCC2)c1ccccc1` (stereo unspecified) registered a kinetic solubility of 7.9 µg/mL (≈ 25.5 µM).

As for `CC(=O)Nc1ccc(N/C=C/C(=O)c2ccc(Cl)cc2)cc1`, the solubility (kinetic) turned out to be 2.4 µg/mL (≈ 7.62 µM).

The molecule `COc1ccccc1N(CC1CO1)S(=O)(=O)c1ccc(C)cc1` (stereo unspecified) registered a kinetic solubility of 47.5 µg/mL (≈ 142 µM).

The molecule `COc1cc(=O)[nH]c(SC(C)C(=O)Nc2ccc3ccccc3c2)n1` (stereo unspecified) returned a solubility (kinetic) of 0.8 µg/mL (≈ 2.25 µM).

Molecule `CC(C)(C)C(=O)NC1CC2CCCC(C1)N2C(=O)Nc1ccccc1F` (stereo unspecified) came in with a kinetic solubility of 6.1 µg/mL (≈ 16.9 µM).

With `COc1cc(SC)ccc1C(=O)OCC(=O)NCC(C)C`, the kinetic solubility is over 46.7 µg/mL.

In the case of `COc1cccc(-c2nc(-c3ccncc3)no2)c1`, the kinetic solubility was 3.5 µg/mL (≈ 13.8 µM).

On to `O=C(CN1CCN(c2ccc(Cl)cc2)CC1)c1ccccc1`, for which the kinetic solubility came out at 18.7 µg/mL (≈ 59.4 µM).

`O=C(O)/C=C/c1ccc(S(=O)(=O)Nc2cccnc2)cc1`: the solubility (kinetic) was over 45.6 µg/mL.
